Counter-ions that a name gives are not always drawn.
Test: Solubility test at pH=4 from phosphate buffer pH 6 0.1M, by HPLC
Format: physicochemical
Details: for solubility at 5 min: aqueous buffer, thermodynamic from solid, phosphate buffer pH 6 0.1M, HPLC, first figure of the S/pH cell, the pH of the sample is the second; for pH (of the solubility sample): second figure of the S/pH cell, pH noted for the solubility sample
Description: The results for solubility, S, and pH are shown in the table below and are expressed in mg/ml.
A phosphate buffer, pH6, 0.1M, was prepared by adding 6.15 ml of 0.1M Na2HPO4 to 43.85 ml of 0.1M NaH2PO4. The solution was made up to 100 ml with filtered water using a Millipore system (trade mark).
Reference (Test Product in a Concentration in which the Latter is Soluble and which Acts as an Internal Reference)
About 0.2 mg (in a boat) was weighed out exactly and diluted in 1 ml of H2O/CH3CN: (50:50), i.e. 0.2 mg/ml, then the sample was subjected to ultrasound for 5 minutes.
About 4 mg (in a boat) was weighed out exactly and diluted in 400 μl (i.e. 10 mg/ml) of pH6 phosphate buffer (0.1M), then the sample was subjected to ultrasound for 5 minutes.
The pH was noted and if the pH was below 4, 1 μl of NaOH 1N was added (from 1 μl in 1 μl) until the pH was more than 4, then the pH was noted again. The solution (0.45 μm) was filtered then if necessary diluted with the phosphate buffer pH6. (If the product re-precipitated after diluting, the diluted sample was ignored, the mother solution was used and the solubility was determined at a wavelength other than λmax, to avoid saturating the signal.
The solubility of the compound was then determined by HPLC under the following conditions:
Instrument: Agilent 1100 chromatograph
Column temperature: 30° C. Flow rate: 0.8 ml/min Detection: λ=230 nm Injection volume: 5 μl

| solubility at 5 min [µg/mL] | pH (of the solubility sample) | Structure (SMILES) |
| --- | --- | --- |
| 8810 | 5.4 | CCCCc1cc2ccccn2c1C(=O)c1ccc(CCCN(CC)CC)cc1.Cl [compound 1, (2-butylindolizin-3-yl){4-[3-(diethylamino)propyl]phenyl}methanone hydrochloride] |
| 7470 | 4.07 | CCc1cc2ccccn2c1C(=O)c1ccc(CCCN(CC)CC)cc1.O=C(O)C(=O)O [compound 2, (2-ethylindolizin-3-yl){4-[3-(diethylamino)propyl]phenyl}methanone oxalate] |
| > 10000 | 5.82 | CCCc1cc2ccccn2c1C(=O)c1ccc(CCCN(CC)CC)cc1.Cl [compound 3, {4-[3-(diethylamino)propyl]phenyl}(2-propylindolizin-3-yl)methanone hydrochloride] |
| > 10000 | 4.10 | CCCCc1cc2ccccn2c1C(=O)c1ccc(CCCCN(CC)CC)cc1.O=C(O)C(=O)O [compound 4, (2-butylindolizin-3-yl){4-[4-(diethylamino)butyl]phenyl}methanone oxalate] |
| > 10000 | 3.96 | CCc1cc2ccccn2c1C(=O)c1ccc(CCCCN(CC)CC)cc1.O=C(O)C(=O)O [compound 5, {4-[4-(diethylamino)butyl]phenyl}(2-ethylindolizin-3-yl)methanone oxalate] |
| > 10000 | 5.79 | CCCc1cc2ccccn2c1C(=O)c1ccc(CCCCN(CC)CC)cc1.Cl [compound 6, {4-[4-(diethylamino)butyl]phenyl}(2-propylindolizin-3-yl)methanone hydrochloride] |
| 8570 | 5.65 | CCCCc1cc2ccccn2c1C(=O)c1ccc(CCCN(CCC)CCC)cc1 [compound 7, (2-butylindolizin-3-yl){4-[3-(dipropylamino)propyl]phenyl}methanone hydrochloride] |
| 8600 | 5.82 | CCCN(CCC)CCCc1ccc(C(=O)c2c(CC)cc3ccccn23)cc1 [compound 8, {4-[3-(dipropylamino)propyl]phenyl}(2-ethylindolizin-3-yl)methanone hydrochloride] |
| 5290 | 5.82 | CCCc1cc2ccccn2c1C(=O)c1ccc(CCCN(CCC)CCC)cc1 [compound 9, {4-[3-(dipropylamino)propyl]phenyl}(2-propylindolizin-3-yl)methanone hydrochloride] |
| > 10000 | 5.81 | CCCCc1cc2ccccn2c1C(=O)c1ccc(CCCCN(CCC)CCC)cc1 [compound 10, (2-butylindolizin-3-yl){4-[4-(dipropylamino)butyl]phenyl}methanone hydrochloride] |
| > 10000 | 5.82 | CCCN(CCC)CCCCc1ccc(C(=O)c2c(CC)cc3ccccn23)cc1 [compound 11, {4-[4-(dipropylamino)butyl]phenyl}(2-ethylindolizin-3-yl)methanone hydrochloride] |
| 1610 | 7.2 | CCCN(CCC)CCCc1ccc(C(=O)c2c(C)cc3ccccn23)cc1 [compound 13, {4-[3-(dipropylamino)propyl]phenyl}(2-methylindolizin-3-yl)methanone hydrochloride] |
| 2330 | 4.10 | CCCN(CCC)CCCCc1ccc(C(=O)c2c(C(C)C)cc3ccccn23)cc1 [compound 14, {4-[4-(dipropylamino)butyl]phenyl}(2-isopropylindolizin-3-yl)methanone oxalate] |
| 1560 | 6.33 | CCCN(CCC)CCCCc1ccc(C(=O)c2c(C)cc3ccccn23)cc1 [compound 15, {4-[4-(dipropylamino)butyl]phenyl}(2-methylindolizin-3-yl)methanone hydrochloride] |
| > 10000 | 5.81 | CCCc1cc2ccccn2c1C(=O)c1ccc(CCCCN(CCC)CCC)cc1 [compound 16, {4-[4-(dipropylamino)butyl]phenyl}(2-propylindolizin-3-yl)methanone hydrochloride] |
| > 10000 | 4.88 | CCCCc1cc2ccccn2c1C(=O)c1ccc(CCCN(CCCC)CCCC)cc1 [compound 17, (2-butylindolizin-3-yl){4-[3-(dibutylamino)propyl]phenyl}methanone hydrochloride] |

| solubility at 5 min [µg/mL] | pH (of the solubility sample) | Structure (SMILES) |
| --- | --- | --- |
| 6510 | 5.42 | CCCCN(CCCC)CCCc1ccc(C(=O)c2c(CC)cc3ccccn23)cc1 [compound 18, {4-[3-(dibutylamino)propyl]phenyl}(2-ethylindolizin-3-yl)methanone hydrochloride] |
| 4070 | 5.27 | CCCCN(CCCC)CCCc1ccc(C(=O)c2c(CCC)cc3ccccn23)cc1 [compound 19, {4-[3-(dibutylamino)propyl]phenyl}(2-propylindolizin-3-yl)methanone hydrochloride] |
| 2950 | 4.02 | CCCCc1cc2ccccn2c1C(=O)c1ccc(CCCCN(CCCC)CCCC)cc1 [compound 20, (2-butylindolizin-3-yl){4-[4-(dibutylamino)butyl]phenyl}methanone oxalate] |
| 6900 | 4.08 | CCCCN(CCCC)CCCCc1ccc(C(=O)c2c(CC)cc3ccccn23)cc1 [compound 21, {4-[4-(dibutylamino)butyl]phenyl}(2-ethylindolizin-3-yl)methanone oxalate] |
| 4080 | 4.58 | CCCCN(CCCC)CCCCc1ccc(C(=O)c2c(CCC)cc3ccccn23)cc1 [compound 22, {4-[4-(dibutylamino)butyl]phenyl}(2-propylindolizin-3-yl)methanone oxalate] |
| > 10000 | 6.06 | CCCCc1cc2ccccn2c1C(=O)c1ccc(CCCN(CC)CCC)cc1 [compound 23, (2-butylindolizin-3-yl)(4-{3-[ethyl(propyl)amino]propyl}phenyl)methanone hydrochloride] |
| 5920 | 4.51 | CCCN(CC)CCCc1ccc(C(=O)c2c(CC)cc3ccccn23)cc1 [compound 24, (2-ethylindolizin-3-yl)(4-{3-[ethyl(propyl)amino]propyl}phenyl)methanone oxalate] |
| 1710 | 6.4 | CCCN(CC)CCCc1ccc(C(=O)c2c(C(C)C)cc3ccccn23)cc1 [compound 25, (4-{3-[ethyl(propyl)amino]propyl}phenyl)(2-isopropylindolizin-3-yl)methanone hydrochloride] |
| 1490 | 7.14 | CCCN(CC)CCCc1ccc(C(=O)c2c(C)cc3ccccn23)cc1 [compound 26, (4-{3-[ethyl(propyl)amino]propyl}phenyl)(2-methylindolizin-3-yl)methanone hydrochloride] |
| 2170 | 6.5 | CCCN(CC)CCCCc1ccc(C(=O)c2c(C(C)C)cc3ccccn23)cc1 [compound 27, (4-{4-[ethyl(propyl)amino]butyl}phenyl)(2-isopropylindolizin-3-yl)methanone oxalate] |
| 1540 | 7.01 | CCCN(CC)CCCCc1ccc(C(=O)c2c(C)cc3ccccn23)cc1 [compound 28, (4-{4-[ethyl(propyl)amino]butyl}phenyl)(2-methylindolizin-3-yl)methanone hydrochloride] |
| > 10000 | 5.94 | CCCc1cc2ccccn2c1C(=O)c1ccc(CCCN(CC)CCC)cc1 [compound 29, (4-{3-[ethyl(propyl)amino]propyl}phenyl)(2-propylindolizin-3-yl)methanone hydrochloride] |
| > 10000 | 5.85 | CCCCc1cc2ccccn2c1C(=O)c1ccc(CCCCN(CC)CCC)cc1 [compound 30, (2-butylindolizin-3-yl)(4-{4-[ethyl(propyl)amino]butyl}phenyl)methanone hydrochloride] |
| > 10000 | 4.05 | CCCN(CC)CCCCc1ccc(C(=O)c2c(CC)cc3ccccn23)cc1 [compound 31, (2-ethylindolizin-3-yl)(4-{4-[ethyl(propyl)amino]butyl}phenyl)methanone oxalate] |
| 5640 | 5.60 | CCCc1cc2ccccn2c1C(=O)c1ccc(CCCCN(CC)CCC)cc1 [compound 32, (4-{4-[ethyl(propyl)amino]butyl}phenyl)(2-propylindolizin-3-yl)methanone hydrochloride] |
| 3880 | 5.36 | CCCCc1cc2ccccn2c1C(=O)c1ccc(CCCN(CCC)CCCC)cc1 [compound 33, (2-butylindolizin-3-yl)(4-{3-[butyl(propyl)amino]propyl}phenyl)methanone oxalate] |
